Assay results: PMC11758266, “Lipid-Modulated, Graduated Inhibition of N-Glycosylation Pathway Priming Suggests Wide Tolerance of ER Proteostasis to Stress” (ACS Central Science, 2024)
Entries after “also recorded” stand apart in the source; their conditions may differ.

Assays:
DPAGT1 = molecular target: T1, DPAGT1 (Homo sapiens, UniProt Q9H3H5); assay: DPAGT1 radiometric in vitro activity assay (end point, phosphorimaging of radio-TLC); format: biochemical; conditions: for % Activity of DPAGT1 in the presence of a tunicamycin analogue compared to a negative control (GFB): Table S1, analogue 1 µM, DPAGT1 1 µM, dolichyl monophosphate 50 µM, UDP-GlcNAc(1-14C) 50 µM, 37 °C, 21 min, three biological replicates; for DPAGT1 inhibition (in words) / activity at 1 µM: inhibitor 1 µM; for DPAGT1 inhibition (in words): enzyme:inhibitor 1:1, substrates 50 µM; for activity at 1 µM: enzyme:inhibitor 1:1, read-out: retained DPAGT1 activity (% of WT activity)
T1 construct: full-length DPAGT1 bearing an additional tobacco etch virus (TEV) protease-cleavable N-terminal His6 tag; His6 with TEV protease cleavage site ([…]/S leader) (N, cleaved yes); made in house; host or cells: Spodoptera frugiperda Sf9 insect cells (baculovirus, pFB-LIC-Bse vector)
T1 sequence (Q9H3H5 with tags, fused parts or gaps): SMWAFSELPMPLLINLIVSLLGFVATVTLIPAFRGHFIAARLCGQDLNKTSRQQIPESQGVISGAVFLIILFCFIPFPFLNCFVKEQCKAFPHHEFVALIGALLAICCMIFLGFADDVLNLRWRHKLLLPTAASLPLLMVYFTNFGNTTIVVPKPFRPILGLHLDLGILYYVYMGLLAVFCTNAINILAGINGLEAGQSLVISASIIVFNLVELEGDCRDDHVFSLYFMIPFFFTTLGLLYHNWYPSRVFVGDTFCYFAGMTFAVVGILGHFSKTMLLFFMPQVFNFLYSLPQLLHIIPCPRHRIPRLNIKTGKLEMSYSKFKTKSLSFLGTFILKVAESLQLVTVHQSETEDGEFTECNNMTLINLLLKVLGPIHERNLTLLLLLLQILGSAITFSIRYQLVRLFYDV
Text: Figure 2 Design, synthesis and in vitro inhibitory activity of lipid-altered tunicamycins. (A) Structure of DPAGT1 in complex with tunicamycin[21] showing key interactions primarily along TMH5 that in concert with a Trp122 “lid” create the lipid-engagement site (blue). This engagement contrasts with a small, gated pocket below bounded primarily by Leu293 in which only smaller moieties (here an acetamide) are accommodated (red). (B) Guided by this structure, as an apparent snapshot of a Michaelis complex-like mode of binding, modulation at two acyl sites in the core scaffold was explored. […] Semisynthesis allowed generation of graduated lipid tunicamycin analogues through regiochemical differentiation in carbamoylation to generate two key divergent intermediates: Tun-0E,0G and Tun-0E,2G. Subsequent differential acylations allow for generation of both symmetric and asymmetric Tun-XE,YG analogues. Reagents and conditions: (a) Ac2O, pyridine; (b) Boc2O, DMAP, THF; (c) NaOMe, MeOH; (d) 4 M HCl in dioxane, MeOH; (e) HATU, DIPEA, octanoic acid, DMF; (f) HATU, DIPEA, carboxylic acid; (g) HATU, DIPEA, 2 × carboxylic acid. (C) Residual % in vitro activity of DPAGT1 following incubation with analogues [DPAGT1 ([…]), MgCl2 (5 mM), Tun analogue ([…]), dolichol phosphate ([…]), and UDP-GlcNAc(1-^14C) ([…]) in 1% OGNG/CHS/cardiolipin] was assessed through end point assay at 37 °C via phosphorimaging. These were determined on the basis of three biological replicates, each using three technical replicates. Error bars shown are standard deviations.
The intended targeting and graduated modulation of DPAGT1’s PNPT activity was assessed in vitro using a highly pure recapitulated source. Briefly, full-length DPAGT1 bearing an additional tobacco etch virus (TEV) protease-cleavable N-terminal His6 tag was expressed using a baculovirus (DH10Bac)/insect cell (Spodoptera frugiperda Sf9) system using a pFB-LIC-Bse expression vector. DPAGT1 is an integral transmembrane enzyme, and thus, after harvesting and lysis, protein was extracted from the expression host membrane fraction using octyl glucose neopentyl glycol (OGNG) (1% w/v) and cholesterylhemisuccinate (CHS) (0.1% w/v) before isolation and purification by immobilized metal affinity chromatography (IMAC) using a Co^2+-charged (“TALON”) resin and elution with an imidazole gradient. To ensure that there were no confounding effects of the His6 tag, this was then cleaved with TEV protease followed by reverse IMAC and size exclusion chromatography in sequence.
Radiometric bisubstrate analyses allowed excellent sensitivity under the conditions necessary for proper recapitulation of the activity. Purified DPAGT1 (1 μM) was incubated with both substrates, dolichol monophosphate and radiolabeled UDP-N-acetyl-D-[1-^14C]glucosamine, at 50 μM, and the activity was determined directly by end point phosphor detection of product dolichol-PP-N-acetyl-D-[1-^14C]glucosamine formation.
MgCl2, 10 mM imidazole (pH 8.0), 200 mM NaCl , 2 mM TCEP (added fresh), 5% Glycerol, 0.18% OGNG, 0.01 8% CHS, 0.0036% cardiolipin) and the protein was eluted with WB supplemented with 250 mM imidazole (pH 8.0). The eluted protein was desalted using PD-10 columns (GE Healthcare) pre-equilibrated with gel filtration buffer (GFB: 20 mM HEPES (pH […]
cardiolipin). Desalted protein was subsequently treated with 10:1 TEV protease (w:w, protein:enzyme) overnight at 4 ° C. The TEV protease treated protein was separated from the 6-His-tagged enzymes and uncleaved DPAGT1 by incubation for 1 h with Talon resin (prepared as described above) at 4 °C for 1 h. The resin was collected in a column, the flowthrough collected and the protein sample was centrifuged at 21,500 rpm in a Beckman TA25.5 rotor for 10 min at 4 ° C. The supernatant was then concentrated to 0.5 mL using a 30 kDa cutoff PES concentrator (Corning), with mixing every 5 mins during concentration. The […]

ATF4 = ATF4 high-content imaging assay in primary human dermal fibroblasts; format: cell-based; conditions: 6 h, Figures S8–S12
Procedure: A targeted panel of tunicamycin analogues was tested in the ATF4 High Content Imaging assay to assess their ER stress generating ability in a primary cell line. Normal adult human dermal fibroblasts (NHDF-Ad, Lonza) were plated in a 96-well Phenoplate (PerkinElmer) at a seeding density of 10,000 cells per well in fibroblast growth medium (containing fibroblast basal medium, 10% FBS, 0.1% insulin, 0.1% hFGF-B, 0.1% Gentamicin/Amphotericin) and incubated at 37°C, 5% CO2. Treatment with pre-diluted compounds was performed after 24 hrs with final concentrations ranging from 10 µM – 5 nM (final DMSO concentration was 0.3%). Low control (0.3% DMSO final conc.) and high control (0.3 µM tunicamycin final conc.) wells were again included for assay normalization. Treated cells were incubated for 6 hrs at 37°C, 5% CO2 before fixing (4% PFA in PBS, 20 min at room temperature followed by washing (3x) with PBS). Direct ATF4 immunofluorescence staining was then performed, whereby cells were treated with a Coralite Plus 488-conjugated ATF4 Polyclonal antibody (CL488-10835, Proteintech) in a 1:100 dilution of Perm-block buffer (10% FBS, 0.3% TritonX-100 in PBS) for 2 hrs. Nuclei staining was then performed with DRAQ5 dye (ab108410, Abcam) at 1:1000 in PBS. Plates were imaged on a Leica SP8 confocal microscope equipped with 488 nm and 633 nm excitation and images were analysed using script-based algorithms as described for HEK cells above. […]

His-tagged IgG-Fc domain = assay: In cell glycoprotein inhibition assay (IgG-Fc expression, SDS-PAGE and Western blot); format: cell-based, human; conditions: HEK293T cells, 3 days, analogue 10 µM down to 0.5 nM (Tun-8E,2G 300 µM down to 15 nM), Figure S13

| Compound | % Activity of DPAGT1 in the presence of a tunicamycin analogue compared to a negative control (GFB) (DPAGT1) | DPAGT1 inhibition (in words) (DPAGT1) | activity at 1 µM (DPAGT1) | increase in ATF4 (in words) (ATF4) | glycosylation state of expressed IgG-Fc (in words) (His-tagged IgG-Fc domain) | glycosylation state of expressed IgG-Fc (in words) (His-tagged IgG-Fc domain; listed as Tun) |
| --- | --- | --- | --- | --- | --- | --- |
| CCCCCCCCC(=O)N[C@H]1[C@@H](O[C@@H]2O[C@H](C[C@@H](O)[C@H]3O[C@@H](n4ccc(=O)[nH]c4=O)[C@H](O)[C@@H]3O)[C@H](O)[C@H](O)[C@H]2NC(=O)CCC)O[C@H](CO)[C@@H](O)[C@@H]1O [Tun-4E,9G] | 93.6% | little to no significant inhibition; also recorded: minimal DPAGT1 inhibition | – | – | – | – |
| CCCCCCCC(=O)N[C@H]1[C@H](O[C@H]2O[C@H](CO)[C@@H](O)[C@H](O)[C@H]2NC(C)=O)O[C@H](C[C@@H](O)[C@H]2O[C@@H](n3ccc(=O)[nH]c3=O)[C@H](O)[C@@H]2O)[C@H](O)[C@@H]1O [Tun-8E,2G] | 35.4% | increasing inhibitory activity in a graduated manner | 35% | only Tun itself leads to an increase in ATF4 | unglycosylated IgG Fc protein is observed; also recorded: expression of non-glycosylated IgG-Fc | – |
| CCCCCCCCC(=O)N[C@H]1[C@H](O[C@H]2O[C@H](CO)[C@@H](O)[C@H](O)[C@H]2NC(=O)CCCCCCCC)O[C@H](C[C@@H](O)[C@H]2O[C@@H](n3ccc(=O)[nH]c3=O)[C@H](O)[C@@H]2O)[C@H](O)[C@@H]1O [Tun-9E,9G] | 79.6% | little to no significant inhibition; also recorded: minimal DPAGT1 inhibition | – | only Tun itself leads to an increase in ATF4 | expression of intact glycosylated protein | – |
| CCCCCCCCC(=O)N[C@H]1[C@H](O[C@H]2O[C@H](CO)[C@@H](O)[C@H](O)[C@H]2NC(=O)CC(C)C)O[C@H](C[C@@H](O)[C@H]2O[C@@H](n3ccc(=O)[nH]c3=O)[C@H](O)[C@@H]2O)[C@H](O)[C@@H]1O [Tun-9E,i5G] | 54.8% | increasing inhibitory activity in a graduated manner | 55% | – | – | – |
| tunicamycin [reference compound] | 0.18% | complete inhibition | – | leads to an increase in ATF4 | unglycosylated IgG Fc protein is observed | expression of non-glycosylated IgG-Fc |
